# Assay: (§1) The drug is tested on Z-025 corresponding to rabbit gut metagenome with ENA study accession number: PRJEB37062 and ENA sample accession number: ERS12561824 for biotransformation under anaerobic condition. The drug concentrations were measured over 9 timepoints collected between 0 and 24 hours of incubation by liquid-chromatography-coupled mass spectrometry (LC–MS)
# Details: 2 µM
# Further: call rule not given here.
row,Bacterial Biotransformation,Compound
1,Compound metabolized,CC(=O)OCC(CCn1cnc2cnc(N)nc21)COC(C)=O [FAMCICLOVIR]
2,Compound NOT metabolized,CC(C)(C)NC(=O)[C@H]1CC[C@H]2[C@@H]3CC[C@H]4NC(=O)C=C[C@]4(C)[C@H]3CC[C@]12C [FINASTERIDE]

# Assay: as §1, with “Z-023” for “Z-025”, “to” for “to rabbit gut”, “ERS12561822” for “ERS12561824”
# Details: 2 µM
row,Bacterial Biotransformation,Compound
1,Compound metabolized,CC(=O)OCC(CCn1cnc2cnc(N)nc21)COC(C)=O [FAMCICLOVIR]
2,Compound metabolized,CC(C)(C)NC(=O)[C@H]1CC[C@H]2[C@@H]3CC[C@H]4NC(=O)C=C[C@]4(C)[C@H]3CC[C@]12C [FINASTERIDE]

# Assay: as §1, with “Z-022” for “Z-025”, “mouse” for “rabbit”, “ERS12561821” for “ERS12561824”
# Details: 2 µM
row,Bacterial Biotransformation,Compound
1,Compound NOT metabolized,CC(=O)OCC(CCn1cnc2cnc(N)nc21)COC(C)=O [FAMCICLOVIR]
2,Compound metabolized,CC(C)(C)NC(=O)[C@H]1CC[C@H]2[C@@H]3CC[C@H]4NC(=O)C=C[C@]4(C)[C@H]3CC[C@]12C [FINASTERIDE]

# Assay: as §1, with “Z-013” for “Z-025”, “ERS12561813” for “ERS12561824”
# Details: 2 µM
row,Bacterial Biotransformation,Compound
1,Compound NOT metabolized,CC(=O)OCC(CCn1cnc2cnc(N)nc21)COC(C)=O [FAMCICLOVIR]
2,Compound metabolized,CC(C)(C)NC(=O)[C@H]1CC[C@H]2[C@@H]3CC[C@H]4NC(=O)C=C[C@]4(C)[C@H]3CC[C@]12C [FINASTERIDE]

# Assay: as §1, with “Z-009” for “Z-025”, “pig” for “rabbit”, “ERS12561809” for “ERS12561824”
# Details: 2 µM
row,Bacterial Biotransformation,Compound
1,Compound metabolized,CC(=O)OCC(CCn1cnc2cnc(N)nc21)COC(C)=O [FAMCICLOVIR]
2,Compound metabolized,CC(C)(C)NC(=O)[C@H]1CC[C@H]2[C@@H]3CC[C@H]4NC(=O)C=C[C@]4(C)[C@H]3CC[C@]12C [FINASTERIDE]

# Assay: as §1, with “Z-007” for “Z-025”, “rat” for “rabbit”, “ERS12561807” for “ERS12561824”
# Details: 2 µM
row,Bacterial Biotransformation,Compound
1,Compound metabolized,CC(=O)OCC(CCn1cnc2cnc(N)nc21)COC(C)=O [FAMCICLOVIR]
2,Compound NOT metabolized,CC(C)(C)NC(=O)[C@H]1CC[C@H]2[C@@H]3CC[C@H]4NC(=O)C=C[C@]4(C)[C@H]3CC[C@]12C [FINASTERIDE]

# Assay: as §1, with “Z-006” for “Z-025”, “mouse” for “rabbit”, “ERS12561806” for “ERS12561824”
# Details: 2 µM
row,Bacterial Biotransformation,Compound
1,Compound metabolized,CC(=O)OCC(CCn1cnc2cnc(N)nc21)COC(C)=O [FAMCICLOVIR]
2,Compound metabolized,CC(C)(C)NC(=O)[C@H]1CC[C@H]2[C@@H]3CC[C@H]4NC(=O)C=C[C@]4(C)[C@H]3CC[C@]12C [FINASTERIDE]

# Assay: as §1, with “Z-004” for “Z-025”, “to” for “to rabbit gut”, “ERS12561804” for “ERS12561824”
# Details: 2 µM
row,Bacterial Biotransformation,Compound
1,Compound NOT metabolized,CC(=O)OCC(CCn1cnc2cnc(N)nc21)COC(C)=O [FAMCICLOVIR]
2,Compound NOT metabolized,CC(C)(C)NC(=O)[C@H]1CC[C@H]2[C@@H]3CC[C@H]4NC(=O)C=C[C@]4(C)[C@H]3CC[C@]12C [FINASTERIDE]

# Assay: as §1, with “WLS-350” for “Z-025”, “human” for “rabbit”, “ERS12561789” for “ERS12561824”
# Details: 2 µM
row,Bacterial Biotransformation,Compound
1,Compound metabolized,CC(=O)OCC(CCn1cnc2cnc(N)nc21)COC(C)=O [FAMCICLOVIR]
2,Compound metabolized,CC(C)(C)NC(=O)[C@H]1CC[C@H]2[C@@H]3CC[C@H]4NC(=O)C=C[C@]4(C)[C@H]3CC[C@]12C [FINASTERIDE]

# Assay: as §1, with “WLS-073” for “Z-025”, “human” for “rabbit”, “ERS12561749” for “ERS12561824”
# Details: 2 µM
row,Bacterial Biotransformation,Compound
1,Compound metabolized,CC(=O)OCC(CCn1cnc2cnc(N)nc21)COC(C)=O [FAMCICLOVIR]
2,Compound metabolized,CC(C)(C)NC(=O)[C@H]1CC[C@H]2[C@@H]3CC[C@H]4NC(=O)C=C[C@]4(C)[C@H]3CC[C@]12C [FINASTERIDE]

# Assay: as §1, with “WLS-052” for “Z-025”, “human” for “rabbit”, “ERS12561747” for “ERS12561824”
# Details: 2 µM
row,Bacterial Biotransformation,Compound
1,Compound metabolized,CC(=O)OCC(CCn1cnc2cnc(N)nc21)COC(C)=O [FAMCICLOVIR]
2,Compound metabolized,CC(C)(C)NC(=O)[C@H]1CC[C@H]2[C@@H]3CC[C@H]4NC(=O)C=C[C@]4(C)[C@H]3CC[C@]12C [FINASTERIDE]

# Assay: as §1, with “WLS-010” for “Z-025”, “human” for “rabbit”, “ERS12561743” for “ERS12561824”
# Details: 2 µM
row,Bacterial Biotransformation,Compound
1,Compound metabolized,CC(=O)OCC(CCn1cnc2cnc(N)nc21)COC(C)=O [FAMCICLOVIR]
2,Compound metabolized,CC(C)(C)NC(=O)[C@H]1CC[C@H]2[C@@H]3CC[C@H]4NC(=O)C=C[C@]4(C)[C@H]3CC[C@]12C [FINASTERIDE]

# Details: human gut metagenome, 24 h, 2 µM
row,Bacterial Biotransformation,Compound
1,Compound metabolized,CC(=O)OCC(CCn1cnc2cnc(N)nc21)COC(C)=O [FAMCICLOVIR]
2,Compound metabolized,CC(C)(C)NC(=O)[C@H]1CC[C@H]2[C@@H]3CC[C@H]4NC(=O)C=C[C@]4(C)[C@H]3CC[C@]12C [FINASTERIDE]

# Details: human gut metagenome, 24 h, 2 µM
# Remark: another data set of the same source
row,Bacterial Biotransformation,Compound
1,Compound metabolized,CC(=O)OCC(CCn1cnc2cnc(N)nc21)COC(C)=O [FAMCICLOVIR]
2,Compound metabolized,CC(C)(C)NC(=O)[C@H]1CC[C@H]2[C@@H]3CC[C@H]4NC(=O)C=C[C@]4(C)[C@H]3CC[C@]12C [FINASTERIDE]

# Details: human gut metagenome, 24 h, 2 µM
# Remark: another data set of the same source
row,Bacterial Biotransformation,Compound
1,Compound metabolized,CC(=O)OCC(CCn1cnc2cnc(N)nc21)COC(C)=O [FAMCICLOVIR]
2,Compound metabolized,CC(C)(C)NC(=O)[C@H]1CC[C@H]2[C@@H]3CC[C@H]4NC(=O)C=C[C@]4(C)[C@H]3CC[C@]12C [FINASTERIDE]

# Details: human gut metagenome, 24 h, 2 µM
# Remark: another data set of the same source
row,Bacterial Biotransformation,Compound
1,Compound metabolized,CC(=O)OCC(CCn1cnc2cnc(N)nc21)COC(C)=O [FAMCICLOVIR]
2,Compound metabolized,CC(C)(C)NC(=O)[C@H]1CC[C@H]2[C@@H]3CC[C@H]4NC(=O)C=C[C@]4(C)[C@H]3CC[C@]12C [FINASTERIDE]

# Details: human gut metagenome, 24 h, 2 µM
# Remark: another data set of the same source
row,Bacterial Biotransformation,Compound
1,Compound metabolized,CC(=O)OCC(CCn1cnc2cnc(N)nc21)COC(C)=O [FAMCICLOVIR]
2,Compound metabolized,CC(C)(C)NC(=O)[C@H]1CC[C@H]2[C@@H]3CC[C@H]4NC(=O)C=C[C@]4(C)[C@H]3CC[C@]12C [FINASTERIDE]

# Details: human gut metagenome, 24 h, 2 µM
# Remark: another data set of the same source
row,Bacterial Biotransformation,Compound
1,Compound NOT metabolized,CC(=O)OCC(CCn1cnc2cnc(N)nc21)COC(C)=O [FAMCICLOVIR]
2,Compound NOT metabolized,CC(C)(C)NC(=O)[C@H]1CC[C@H]2[C@@H]3CC[C@H]4NC(=O)C=C[C@]4(C)[C@H]3CC[C@]12C [FINASTERIDE]

# Details: human gut metagenome, 24 h, 2 µM
# Remark: another data set of the same source
row,Bacterial Biotransformation,Compound
1,Compound metabolized,CC(=O)OCC(CCn1cnc2cnc(N)nc21)COC(C)=O [FAMCICLOVIR]
2,Compound NOT metabolized,CC(C)(C)NC(=O)[C@H]1CC[C@H]2[C@@H]3CC[C@H]4NC(=O)C=C[C@]4(C)[C@H]3CC[C@]12C [FINASTERIDE]

# Details: human gut metagenome, 24 h, 2 µM
# Remark: another data set of the same source
row,Bacterial Biotransformation,Compound
1,Compound metabolized,CC(=O)OCC(CCn1cnc2cnc(N)nc21)COC(C)=O [FAMCICLOVIR]
2,Compound metabolized,CC(C)(C)NC(=O)[C@H]1CC[C@H]2[C@@H]3CC[C@H]4NC(=O)C=C[C@]4(C)[C@H]3CC[C@]12C [FINASTERIDE]

# — ChEMBL document CHEMBL5724914, “Linking interpersonal differences in gut microbiota composition and drug biotransformation activity” (2024)
